Values after ≈ are worked out from the molar mass of the structure shown.
Tests used:
[1] = test system: Staphylococcus epidermidis; experiment: Potency index, ratio of telithromycin MIC to test compound MIC for antibacterial activity against erythromycin-resistant Staphylococcus epidermidis 19-4 assessed as inhibition of visible bacterial growth incubated for 18 hrs by broth microdilution method; assay type: functional
Moraxella catarrhalis [2] = experiment: Antibacterial activity against Moraxella catarrhalis BCA 19-5 assessed as inhibition of bacterial growth incubated for 24 hrs by CLSI based broth microdilution method; assay type: functional; conditions: Moraxella catarrhalis, BCA 19-5, 24 h, read-out: MIC
[3] = test system: Staphylococcus epidermidis; experiment: Antibacterial activity against erythromycin-resistant Staphylococcus epidermidis 19-5 assessed as inhibition of visible bacterial growth incubated for 18 hrs by broth microdilution method; assay type: functional
Streptococcus pneumoniae [4] = experiment: Potency index, ratio of telithromycin MIC to test compound MIC for antibacterial activity against Streptococcus pneumoniae SPN19-14 assessed as inhibition of visible bacterial growth incubated for 18 hrs by broth microdilution method; assay type: functional
Haemophilus influenzae [5] = experiment: Antibacterial activity against Haemophilus influenzae HIN 19-15 assessed as inhibition of bacterial growth incubated for 20 to 24 hrs by CLSI based broth microdilution method; assay type: functional; conditions: time 20-24 hrs
[6] = Metabolic stability in human liver microsome assessed as intrinsic clearance measured at 60 mins by LC-MS/MS analysis; assay type: ADME; conditions: liver microsomes, read-out: CLH
[7] = test system: Staphylococcus epidermidis; experiment: Antibacterial activity against erythromycin-resistant Staphylococcus epidermidis 19-4 assessed as inhibition of visible bacterial growth incubated for 18 hrs by broth microdilution method; assay type: functional
[8] = test system: Staphylococcus epidermidis; experiment: Potency index, ratio of telithromycin MIC to test compound MIC for antibacterial activity against erythromycin-resistant Staphylococcus epidermidis 19-5 assessed as inhibition of visible bacterial growth incubated for 18 hrs by broth microdilution method; assay type: functional
[9] = test system: Staphylococcus epidermidis; experiment: Potency index, ratio of telithromycin MIC to test compound MIC for antibacterial activity against erythromycin-resistant Staphylococcus epidermidis 19-8 assessed as inhibition of visible bacterial growth incubated for 18 hrs by broth microdilution method; assay type: functional
Moraxella catarrhalis [10] = experiment: Antibacterial activity against Moraxella catarrhalis BCA 19-6 assessed as inhibition of bacterial growth incubated for 24 hrs by CLSI based broth microdilution method; assay type: functional; conditions: Moraxella catarrhalis, BCA 19-6, 24 h, read-out: MIC
[11] = test system: Staphylococcus epidermidis; experiment: Potency index, ratio of telithromycin MIC to test compound MIC for antibacterial activity against erythromycin-resistant Staphylococcus epidermidis 19-9 assessed as inhibition of visible bacterial growth incubated for 18 hrs by broth microdilution method; assay type: functional
Streptococcus agalactiae [12] = experiment: Antibacterial activity against erythromycin-resistant Streptococcus agalactiae 19-9 assessed as inhibition of visible bacterial growth incubated for 18 hrs by broth microdilution method; assay type: functional
Haemophilus influenzae [13] = experiment: Antibacterial activity against Haemophilus influenzae HIN 19-18 assessed as inhibition of bacterial growth incubated for 20 to 24 hrs by CLSI based broth microdilution method; assay type: functional; conditions: HIN 19-18, time 20-24 hrs
Streptococcus pneumoniae [14] = experiment: Potency index, ratio of telithromycin MIC to test compound MIC for antibacterial activity against Streptococcus pneumoniae SPN19-13 assessed as inhibition of visible bacterial growth incubated for 18 hrs by broth microdilution method; assay type: functional
[15] = Metabolic stability in human liver microsome assessed as parent compound remaining in absence of NADPH measured at 60 mins by LC-MS/MS analysis; assay type: ADME; conditions: liver microsomes, read-out: Stability
Streptococcus pneumoniae [16] = experiment: Antibacterial activity against erythromycin-resistant Streptococcus pneumoniae SPN19-14 assessed as inhibition of visible bacterial growth incubated for 18 hrs by broth microdilution method; assay type: functional
[17] = test system: Staphylococcus epidermidis; experiment: Potency index, ratio of telithromycin MIC to test compound MIC for antibacterial activity against erythromycin-resistant Staphylococcus epidermidis 19-6 assessed as inhibition of visible bacterial growth incubated for 18 hrs by broth microdilution method; assay type: functional
Streptococcus pneumoniae [18] = experiment: Potency index, ratio of telithromycin MIC to test compound MIC for antibacterial activity against Streptococcus pneumoniae SPN19-8 assessed as inhibition of visible bacterial growth incubated for 18 hrs by broth microdilution method; assay type: functional
[19] = Metabolic stability in human liver microsome assessed as parent compound remaining in presence of NADPH measured at 60 mins by LC-MS/MS analysis; assay type: ADME; conditions: liver microsomes, read-out: Stability
Streptococcus agalactiae [20] = experiment: Antibacterial activity against erythromycin-resistant Streptococcus agalactiae 19-8 assessed as inhibition of visible bacterial growth incubated for 18 hrs by broth microdilution method; assay type: functional
[21] = Metabolic stability in human liver microsome assessed as half life measured at 60 mins by LC-MS/MS analysis; assay type: ADME; conditions: liver microsomes
[22] = test system: Staphylococcus epidermidis; experiment: Antibacterial activity against erythromycin-resistant Staphylococcus epidermidis 19-11 assessed as inhibition of visible bacterial growth incubated for 18 hrs by broth microdilution method; assay type: functional
[23] = test system: Staphylococcus epidermidis; experiment: Antibacterial activity against erythromycin-resistant Staphylococcus epidermidis 19-6 assessed as inhibition of visible bacterial growth incubated for 18 hrs by broth microdilution method; assay type: functional
Streptococcus pneumoniae [24] = experiment: Antibacterial activity against erythromycin-resistant Streptococcus pneumoniae SPN19-8 assessed as inhibition of visible bacterial growth incubated for 18 hrs by broth microdilution method; assay type: functional
[25] = test system: Staphylococcus epidermidis; experiment: Antibacterial activity against erythromycin-resistant Staphylococcus epidermidis 19-8 assessed as inhibition of visible bacterial growth incubated for 18 hrs by broth microdilution method; assay type: functional
[26] = Cytotoxicity against mouse AML12 cells assessed as reduction in cell viability incubated for 48 hrs by MTT assay; assay type: toxicity, cell-based
Moraxella catarrhalis [27] = experiment: Antibacterial activity against Moraxella catarrhalis BCA 19-31 assessed as inhibition of bacterial growth incubated for 24 hrs by CLSI based broth microdilution method; assay type: functional; conditions: BCA 19-31, 24 h
[28] = test system: Staphylococcus epidermidis; experiment: Antibacterial activity against erythromycin-resistant Staphylococcus epidermidis 19-9 assessed as inhibition of visible bacterial growth incubated for 18 hrs by broth microdilution method; assay type: functional
Streptococcus pneumoniae [29] = experiment: Antibacterial activity against erythromycin-resistant Streptococcus pneumoniae SPN19-13 assessed as inhibition of visible bacterial growth incubated for 18 hrs by broth microdilution method; assay type: functional
Streptococcus pyogenes = experiment: Antibacterial activity against erythromycin-resistant Streptococcus pyogenes ATCC 19615 assessed as inhibition of visible bacterial growth incubated for 18 hrs by broth microdilution method; assay type: functional
[30] = test system: Staphylococcus epidermidis; experiment: Potency index, ratio of telithromycin MIC to test compound MIC for antibacterial activity against erythromycin-resistant Staphylococcus epidermidis 19-11 assessed as inhibition of visible bacterial growth incubated for 18 hrs by broth microdilution method; assay type: functional
Haemophilus influenzae [31] = experiment: Antibacterial activity against Haemophilus influenzae HIN 20-18 assessed as inhibition of bacterial growth incubated for 20 to 24 hrs by CLSI based broth microdilution method; assay type: functional; conditions: time 20-24 hrs

SMILES | Ratio [1] | MIC (Moraxella catarrhalis [2]) [µg/mL] | MIC [3] [µg/mL] | Ratio (Streptococcus pneumoniae [4]) | MIC (Haemophilus influenzae [5]) [µg/mL] | microsomal CLint [6] [µL/min/mg] | MIC [7] [µg/mL] | MIC (Moraxella catarrhalis [10]) [µg/mL] | MIC (Streptococcus agalactiae [12]) [µg/mL] | MIC (Haemophilus influenzae [13]) [µg/mL] | MIC (Streptococcus pneumoniae [16]) [µg/mL] | MIC [22] [µg/mL] | MIC [23] [µg/mL] | MIC (Streptococcus pneumoniae [24]) [µg/mL] | MIC [25] [µg/mL] | CC50 at 48 h [26] [µM] | MIC (Moraxella catarrhalis [27]) [µg/mL] | MIC [28] [µg/mL] | MIC (Streptococcus pneumoniae [29]) [µg/mL] | MIC (Streptococcus pyogenes) [µg/mL] | other results
CC[C@H]1OC(=O)[C@@](C)(F)C(=O)[C@H](C)[C@@H](O[C@@H]2O[C@H](C)C[C@H](N(C)C)[C@H]2O)[C@](C)(OC)C[C@@H](C)C(=O)[C@H](C)[C@H]2N(CCCOC(=O)Nc3ccc(F)cc3)C(=O)O[C@]12C | 4 | 0.03 (≈ 0.0363 µM) | < 0.03 | <4 | 4 (≈ 4.84 µM) | 183 | < 0.03 | 0.03 (≈ 0.0363 µM) | 0.25 (≈ 0.303 µM) | 2 (≈ 2.42 µM) | < 0.03 | < 0.03 | < 0.03 | < 0.03 | < 0.03 | 97.9 | 0.03 (≈ 0.0363 µM) | 0.06 (≈ 0.0726 µM) | < 0.03 | < 0.03 | Ratio [8]: 4; Ratio [9]: 4; Ratio [11]: 4; Ratio (Streptococcus pneumoniae [14]): <4; remaining at 1 h [15]: 95%; Ratio [17]: 4; Ratio (Streptococcus pneumoniae [18]): <4; remaining at 1 h [19]: 0.4%; MIC (Streptococcus agalactiae [20]): < 0.03 µg/mL; half-life [21]: 0.0633 h; Ratio [30]: 4
CC[C@H]1OC(=O)[C@@](C)(F)C(=O)[C@H](C)[C@@H](O[C@@H]2O[C@H](C)C[C@H](N(C)C)[C@H]2O)[C@](C)(OC)C[C@@H](C)C(=O)[C@H](C)[C@H]2N(CCCOC(=O)Nc3cccc(SC)c3)C(=O)O[C@]12C | 4 | < 0.03 | 0.03 (≈ 0.0351 µM) | – | 2 (≈ 2.34 µM) | – | < 0.03 | < 0.03 | 0.125 (≈ 0.146 µM) | 1 (≈ 1.17 µM) | < 0.03 | 0.03 (≈ 0.0351 µM) | 0.03 (≈ 0.0351 µM) | < 0.03 | < 0.03 | 34.4 | < 0.03 | < 0.03 | < 0.03 | < 0.03 | Ratio [8]: 4; Ratio [9]: 4; Ratio [11]: 4; Ratio [17]: 4; MIC (Streptococcus agalactiae [20]): < 0.03 µg/mL; Ratio [30]: 4
CC[C@H]1OC(=O)[C@@](C)(F)C(=O)[C@H](C)[C@@H](O[C@@H]2O[C@H](C)C[C@H](N(C)C)[C@H]2O)[C@](C)(OC)C[C@@H](C)C(=O)[C@H](C)[C@H]2N(CCCOC(=O)Nc3ccccc3C)C(=O)O[C@]12C | – | 0.125 (≈ 0.152 µM) | < 0.03 | – | 4 (≈ 4.87 µM) | 4 | 0.06 (≈ 0.073 µM) | 0.125 (≈ 0.152 µM) | 0.5 (≈ 0.608 µM) | 2 (≈ 2.43 µM) | 0.125 (≈ 0.152 µM) | < 0.03 | 0.125 (≈ 0.152 µM) | 0.125 (≈ 0.152 µM) | 0.06 (≈ 0.073 µM) | > 100 | 0.05 (≈ 0.0608 µM) | 0.25 (≈ 0.304 µM) | 0.125 (≈ 0.152 µM) | < 0.03 | MIC (Haemophilus influenzae [31]): 16 µg/mL (≈ 19.5 µM); remaining at 1 h [15]: 101%; remaining at 1 h [19]: 73.3%; half-life [21]: 2.93 h
CC[C@H]1OC(=O)[C@@](C)(F)C(=O)[C@H](C)[C@@H](O[C@@H]2O[C@H](C)C[C@H](N(C)C)[C@H]2O)[C@](C)(OC)C[C@@H](C)C(=O)[C@H](C)[C@H]2N(CCCOC(=O)Nc3cccs3)C(=O)O[C@]12C | – | 0.25 (≈ 0.307 µM) | < 0.03 | <4 | 4 (≈ 4.91 µM) | – | 0.25 (≈ 0.307 µM) | 0.25 (≈ 0.307 µM) | 1 (≈ 1.23 µM) | 4 (≈ 4.91 µM) | 0.25 (≈ 0.307 µM) | < 0.03 | 0.06 (≈ 0.0737 µM) | 0.125 (≈ 0.154 µM) | 0.06 (≈ 0.0737 µM) | > 100 | 0.06 (≈ 0.0737 µM) | 0.5 (≈ 0.614 µM) | 0.25 (≈ 0.307 µM) | < 0.03 | MIC (Haemophilus influenzae [31]): 8 µg/mL (≈ 9.83 µM); Ratio (Streptococcus pneumoniae [14]): <4; Ratio (Streptococcus pneumoniae [18]): <4
